Values of other authors as cited in patent US9758831B2, “Methods of predicting clinical course and treating multiple sclerosis” (Tel HaShomer Medical Research Infrastructure and Services …, priority 2009, dated 2017).

What was measured:
RRN3/rpa43 complex = details: in vivo
[1] = tested on: Experimental Autoimmune Encephalomyelitis; details: in vivo

## C[C@@H]1C[C@@H]([C@H](O)CC2CC(=O)NC(=O)C2)C(=O)[C@@H](C)C1 [Cycloheximide]
RRN3
  association of RRN3 with RNA polymerase I: causes its dissociation from RNA polymerase I
  phosphorylation of RRN3: inhibits the phosphorylation of RRN3
RRN3/rpa43 complex
  formation of RRN3/rpa43 complex: inhibits the formation of a RRN3/rpa43 complex in vivo

## CC(C)[C@]12O[C@H]1[C@@H]1O[C@]13[C@]1(O[C@H]1C[C@H]1C4=C(CC[C@@]13C)C(=O)OC4)[C@@H]2O [Triptolide, Trisoxireno(4b,5:6,7:8a,9)phenanthro(1,2-c)furan-1(3H)-one, 3b,4,4a,6,6a,7a,7b,8b,9,10-decahydro-6-hydroxy-8b-methyl-6a-(1-methylethyl)-, (3bS,4aS,5aS,6R,6aR,7aS,7bS,8aS,8bS)-]
[1]
  T-cell inflammatory responses: modulates T-cell inflammatory responses
  effect on Experimental Autoimmune Encephalomyelitis: ameliorates Experimental Autoimmune Encephalomyelitis
T lymphocyte
  IFNγ production: inhibition
  T cell apoptosis: T cell apoptosis induction
  lymphocyte proliferation: inhibition of lymphocyte prolipheration
T lymphocyte; activated T cells
  IL2 and IL2 receptor expression: decreased
Dendritic cells
  maturation, antigen processing and presentation of dendritic cells: can inhibit
Activated macrophages
  TNF-a and IL-6 production: can suppress
